The text below walks through data of patent US20060035810A1, “Regulation of ins(3456)p4 signalling by a reversible kinase phosphatase and methods and compositions related thereto” (priority 2002, published 2006).

For assay [1], the system named is insulin granules in pancreatic β-cells. As to the kind of experiment: Insulin granule acidification, LSG fluorescence with patch-clamp and confocal imaging. Type of assay: cell-based, mouse. Conditions: DIDS 100 μM in bath solution 30 min prior to patching. How it is done:
FIG. 6. Ins(3,4,5,6)P4 inhibits acidification of insulin granules in pancreatic β-cells. FIG. 6A, Representative time-courses for intragranular acidification, monitored by increased fluorescence of LSG before and after establishment of the standard whole-cell configuration (see arrow) and the effect of perfusion of intracellular medium (containing 0.4 μM [Ca^2+]free except where “no calcium” is indicated; see Methods) plus either 0 (“control”), 1 or 10 μM Ins(3,4,5,6)P4. FIG. 6B, Mean (±SE) fluorescence changes (n-5-11), during the 60 s that followed establishment of the standard whole-cell configuration, for cells perfused with inositol phosphates as indicated at the base of the bar graph. Where indicated, DIDS (100 μM) were added to the bath solution 30 min prior to patching the cells. Statistical significance was evaluated by Student's unpaired t-test (* P<0.01).
The inositol phosphates used in this study were all purchased from CellSignals Inc (Lexington, Ky.). Insulin granule pH were monitored by combining the patch-clamp technique with confocal imaging. Pancreatic β-cells, isolated and cultured on glass coverslips for 2-24 h, were voltage clamped at −70 mV, as previously described (B9). LysoSensor-Green™ DND-189 (1 μM; Molecular Probes, Leiden, The Netherlands) was added during the last 30 min of cell culture and was also included in the extracellular buffer (B9) that continuously perfused the experimental chamber. All LSG experiments were performed at 20° C. to prevent exocytosis that otherwise interfered with the optical measurements (15). LSG fluorescence was excited using the 488 nm-line of a Zeiss 510 confocal microscope. The emitted light was collected with a 63×/1.3 NA oil objective and a >505 nm filter. Laser scanning was performed with low pixel resolution (128×128) and with 6 s intervals to minimize photo-bleaching. After gigaseal formation, it was ascertained that LSG fluorescence was stable for at least 30 s before the experiment commenced. The intracellular electrode solution contained: 125 mM K-glutamate, 10 mM KCl, 1 0 mM NaCl, 1 mM MgCl2, 5 mM HEPES, 3 mM Mg-ATP, 0.1 mM cAMP, 10 mM EGTA and 7 mM CaCl2 (˜0.4 μM free [Ca^2+]I; pH 7.2 with KOH). In some experiments, marked “no calcium”, there was no added Ca^2+, and the concentration of EGTA was 50 μM. Whole-cell capacitance measurements (at 33° C.) were made with the cells clamped at −70 mV, and the standard whole-cell configuration was established at t=0. Capacitance recordings were made using an EPC-7 patch-clamp amplifier equipped with the software Pulse (version 8.4 and later) and the X-chart extension (HEKA Elektronik, Lambrecht/Pfalz, Germany) (B9).
(In general: In patch-clamp work, channel activity is measured electrically.)

Assay [2] has the same test system. In words: CCCP-mediated de-acidification of insulin granules, LSG fluorescence. The assay is classed as cell-based, mouse. The following applies: DIDS blockade of Cl− conductance, CCCP. Here is the method:
FIG. 7A, Representative confocal images of LSG fluorescence immediately before (zero) and 60 s after perfusion of cells with intracellular buffer supplemented with 100 μM of the protonophore, CCCP, in the absence or presence of 10 μM Ins(3,4,5,6)P4. FIG. 7B, Representative time-courses for changes in LSG-fluorescence ([F/F0] as % of zero time) immediately after establishing a standard whole-cell configuration as in panel A, with intracellular medium (containing 0.4 μM [Ca^2+]free except where “no calcium” is indicated; see Methods) plus 100 μM CCCP, together with either 0 (“control”) or 10 μM Ins(3,4,5,6)P4. FIG. 7C, Mean (±SE) fluorescence changes (n=4-6), during the 60 s that followed establishment of the standard whole-cell configuration, for cells perfused with intracellular medium supplemented with inositol phosphates as indicated at the base of the bar graph ([…]).
The inositol phosphates used in this study were all purchased from CellSignals Inc (Lexington, Ky.). Insulin granule pH were monitored by combining the patch-clamp technique with confocal imaging. Pancreatic β-cells, isolated and cultured on glass coverslips for 2-24 h, were voltage clamped at −70 mV, as previously described (B9). LysoSensor-Green™ DND-189 (1 μM; Molecular Probes, Leiden, The Netherlands) was added during the last 30 min of cell culture and was also included in the extracellular buffer (B9) that continuously perfused the experimental chamber. All LSG experiments were performed at 20° C. to prevent exocytosis that otherwise interfered with the optical measurements (15). LSG fluorescence was excited using the 488 nm-line of a Zeiss 510 confocal microscope. The emitted light was collected with a 63×/1.3 NA oil objective and a >505 nm filter. Laser scanning was performed with low pixel resolution (128×128) and with 6 s intervals to minimize photo-bleaching. After gigaseal formation, it was ascertained that LSG fluorescence was stable for at least 30 s before the experiment commenced. The intracellular electrode solution contained: 125 mM K-glutamate, 10 mM KCl, 1 0 mM NaCl, 1 mM MgCl2, 5 mM HEPES, 3 mM Mg-ATP, 0.1 mM cAMP, 10 mM EGTA and 7 mM CaCl2 (˜0.4 μM free [Ca^2+]I; pH 7.2 with KOH). In some experiments, marked “no calcium”, there was no added Ca^2+, and the concentration of EGTA was 50 μM. Whole-cell capacitance measurements (at 33° C.) were made with the cells clamped at −70 mV, and the standard whole-cell configuration was established at t=0. Capacitance recordings were made using an EPC-7 patch-clamp amplifier equipped with the software Pulse (version 8.4 and later) and the X-chart extension (HEKA Elektronik, Lambrecht/Pfalz, Germany) (B9). […]

The target in assay [3] is T1, Recombinant human Ins(3,4,5,6)P4 1-kinase (Homo sapiens, UniProt Q13572).
T1 construct: made in house; host or cells: E. coli
T1 sequence (Q13572 1-414): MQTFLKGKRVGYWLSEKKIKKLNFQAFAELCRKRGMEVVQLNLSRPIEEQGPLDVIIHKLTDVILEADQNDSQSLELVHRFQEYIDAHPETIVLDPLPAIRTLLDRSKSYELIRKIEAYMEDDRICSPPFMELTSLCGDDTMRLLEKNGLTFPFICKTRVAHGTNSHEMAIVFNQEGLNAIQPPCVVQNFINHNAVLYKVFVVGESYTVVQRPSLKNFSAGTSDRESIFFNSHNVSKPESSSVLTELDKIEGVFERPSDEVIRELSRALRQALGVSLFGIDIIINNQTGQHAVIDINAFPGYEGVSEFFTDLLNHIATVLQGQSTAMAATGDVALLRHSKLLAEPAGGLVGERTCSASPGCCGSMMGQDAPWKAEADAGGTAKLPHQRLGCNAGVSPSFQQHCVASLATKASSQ
In words: Inositol phosphate kinase activity assay (HPLC). Type of assay: biochemical. How it is done:
(§1) Inositol phosphate phosphatase activity was assayed in buffer containing 100 mM KCl, 20 mM HEPES pH 7.2, 5 mM ADP, 6 mM MgSO4, 0.3 mg/ml bovine serum albumin. Assays were acid-quenched, neutralized and analyzed by HPLC using a Synchropak Q100 columm (Caffrey et al., “Expanding Coincident Signaling by PTEN through its Inositol 1,3,4,5,6-Pentakisphosphate 3-phosphatase Activity,” FEBS Lett 499: 6-10 (2001)); 1 ml fractions were collected for 70 min., followed by 0.5 ml fractions. Inositol phosphate kinase activity was assayed in buffer containing 100 mM KCl, 20 mM HEPES pH 7.2, 5 mM ATP, 10 mM phosphocreatine, 6 mM MgSO4, 10 μg/ml creatine phosphokinase (Calbiochem), 0.3 mg/ml bovine serum albumin. Some assays were acid-quenched and analyzed by HPLC using a Synchropak Q100 column. Other reactions were heat-inactivated (95° C., 3 min) and analyzed by a metal dye detection, HPLC method (Mayr, “A novel metal-dye detection sysytem permits picomolar-range h.p.l.c. analysis of inositol polyphosphates from non-radioactively labelled cell or tissue specimens,” Biochem J 254: 585-591 (1988); Adelt et al., “Enzyme-assisted total synthesis of the optical antipodes D-myo-inositol 3,4,5-trisphosphate and D-myo-inositol 1,5,6-trisphosphate: aspects of their structure-activity relationship to biologically active inositol phosphates,” J Med Chem 42: 1262-1273 (1999)).
Activity of 3.4 ug of inositol 3,4,5,6-tetrakisphosphate 1-kinase was assayed for 4 hr. at 37° C. in 200 μl buffer containing 100 mM KCl, 20 mM HEPES pH 7.2, 5 mM ATP, 10 mM phosphocreatine, 6 mM MgSO4, 10 μg/ml creatine phosphokinase (Calbiochem), 0.3 mg/ml bovine serum albumin and 50 uM of either inositol 3,4,5-trisphosphate, 4,5,6-trisphosphate or inositol 3,5,6-trisphosphate. Reactions were heat-inactivated (95° C., 3 min) and analyzed by a metal dye detection, HPLC method.
[…] (Manassas, Va.) supplied the CFPAC-1 cells and T84 cells. Recombinant human Ins(3,4,5,6)P4 1-kinase was expressed in E. coli and purified (Yang et al., “Multitasking in Signal Transduction by a Promiscuous Human Ins(3,4,5,6)P4 1-Kinase/Ins(1,3,4)P3 5/6-Kinase,” Biochem J 351: 551-555 (2000)). Non-radiolabeled Ins(1,3,4)P3 and Ins(1,3,4,5,6)P5 were purchased from CellSignals Inc (Lexington, Ky.). The details of the synthesis of non-radiolabeled Ins(3,4,5)P3, Ins(3,5,6)P3, Ins(4,5,6)P3 and Ins(3,4,6)P3 (as sodium salts) will be published separately by S.-K. C. Ins(3,4,6)P3 was also prepared by a different synthetic route (Mills et al., “Synthesis of D- and L-myo-inositol 1,4,6-trisphosphate, regioisomers of a ubiquitous second messenger,” J Org Chem 61: 8980-8987 (1996)). [^3H]Ins(1,3,4,5,6)P5 was prepared as previously described (Zhang et al., “The Transcriptional Regulator, Arg82, is a Hybrid Kinase with both Monophosphoinositol- and Diphosphoinositol-Polyphosphate Synthase Activity,” FEBS Lett 494: 208-212 (2001)). [^3H]Ins(1,3,4)P3 was prepared from [^3H]Ins(1,3,4,5)P4 (New England Nuclear) using recombinant Ins(1,4,5)P3/Ins(1,3,4,5)P4 5-phosphatase (Erneux et al., “Production of recombinant human brain type I inositol-1,4,5-trisphosphate 5-phosphatase in Escherichia coli. Lack of phosphorylation by protein kinase C,” Eur J Biochem 234: 598-602 (1995)). [^3H]Ins(1,3,4)P3 was converted to [^3H]Ins(1,3,4,6)P4 using Ins(1,3,4)P3 6-kinase activity (Yang et al., “Multitasking in Signal Transduction by a Promiscuous Human Ins(3,4,5,6)P4 1-Kinase/Ins(1,3,4)P3 5/6-Kinase,” Biochem J 351: 551-555 (2000)). [^3H]Ins(3,4)P2 was prepared by alkaline phosphatase attack on [^3H]Ins(1,3,4)P3 in 20 mM glycine (pH 9.0 with KOH). [^3H]Ins(1,4)P2 was purchased from New England Nuclear.

Assay [4] deals with T2, Ins(1,3,4,5,6)P5 1-phosphatase activity of Ins(3,4,5,6)P4 kinase (Homo sapiens, UniProt Q13572).
T2 construct: made in house; host or cells: E. coli
T2 sequence (Q13572 1-414): T1 sequence (Q13572 1-414)
In words: Inositol phosphate phosphatase activity assay with ADP (HPLC). The assay is classed as biochemical. Conditions: 5 mM ADP, trace amounts of substrate. Here is the method:
Ins(3,4,5,6)P4 kinase (0.4 μg) was incubated for 30 min in 100 μl phosphatase assay buffer (see Methods) either with (closed circles) or without (open circles) 5 mM ADP plus trace-amounts of either [^3H]Ins(1,3,4,5,6)P5 (panel A) [^3H]Ins(1,3,4,6)P4 (panel B), or [^3H]Ins(1,3,4,5)P4 (panel C). Samples were analyzed by HPLC (see Methods). The elution positions of Ins(1,3,4)P3 and Ins(3,4,5,6)P4 were verified with genuine standards. The elution positions of Ins(1,3,4,6)P4 (106 min, panel B) and of Ins(1,3,4,5)P4 (110 min, panel C) exclude these as products of InsP5 dephosphorylation (panel A).
Additional incubations were performed with 5 μM [^3H]Ins(1,3,4)P3 (approx. 1200 d.p.m.) plus either no Ins(1,3,4,5,6)P5 (open circles) or 5 μM non-radiolabeled Ins(1,3,4,5,6)P5 (closed circles); these reactions were assayed by HPLC (Synchropak Q100 column) and the InsP4 region of the chromatogram is shown in Panel B.
as §1

Consider `O=S(=O)(O)c1cc(N=C=S)ccc1C=Cc1ccc(N=C=S)cc1S(=O)(=O)O` [DIDS, 4,4′-diisothiocyanostilbene-2,2′-disulfonic acid], for which the “effect on granule acidification” value in assay [1] is on record as “inhibited”. Besides, in assay [2], the “effect on loss of H+ from the granules” value is “inhibited”.
Consider `O=P(O)(O)O[C@@H]1C(O)[C@H](OP(=O)(O)O)[C@@H](OP(=O)(O)O)C(O)[C@H]1OP(=O)(O)O` (stereo partly shown) [Ins(1,3,4,6)P4], for which the “whether the enzyme phosphorylates the inositol phosphate” value in assay [3] was “does not phosphorylate”. Besides, the “product of ADP-dependent dephosphorylation” value in assay [4] was “dephosphorylated to Ins(1,3,4)P3”.
